Assay results from ChEMBL document CHEMBL1151157, “New cytotoxic steroids from the Indian Ocean sponge Axinella cf. bidderi” (2004).
Converted amounts (≈) assume the structure as drawn. The source made the active and inactive calls. The rule behind the calls is not given here.

How the values were obtained:
Assay type in all cases: functional
Homo sapiens = organism: Homo sapiens; assay: (§1) Cytotoxicity against human NSCLC-N6-L16 cells by MTT assay
LoVo = assay: Cytotoxicity against human LoVo cells by MTT assay
PANC-1 = assay: Cytotoxicity against human PANC1 cells by MTT assay
LNCaP = assay: Cytotoxicity against human LNCAP cells by MTT assay
[1] = Cytotoxicity against human IGROV-ET cells by MTT assay
[2] = as §1

Compound	Activity (Homo sapiens)	GI50 (LoVo) [µg/mL]	Activity (PANC-1)	GI50 (LNCaP) [µg/mL]	GI50 [1] [µg/mL]	GI50 [2] [µg/mL]	GI50 (PANC-1) [µg/mL]
CC1=C(CCC(C)C)OC[C@]23CC[C@H]4[C@@H](CC[C@H]5C[C@@H](O)CC[C@@]54C)[C@@H]2CC[C@H]13	inactive	8.29 (≈ 20.7 µM)	inactive	2.88 (≈ 7.19 µM)	6.66 (≈ 16.6 µM)		
CC(C)CC1OC1[C@@H](C)[C@@]1(O)CC[C@H]2[C@@H]3CC=C4C[C@@H](O)CC[C@]4(C)[C@H]3CC[C@@]21C (stereo not given in full)		6.23 (≈ 15 µM)		3.09 (≈ 7.42 µM)	1.24 (≈ 2.98 µM)	2 (≈ 4.8 µM)	2.17 (≈ 5.21 µM)
CC(C)C(C)C1OC1[C@@H](C)[C@@]1(O)CC[C@H]2[C@@H]3CC=C4C[C@@H](O)CC[C@]4(C)[C@H]3CC[C@@]21C (stereo not given in full)		4.02 (≈ 9.33 µM)		6.42 (≈ 14.9 µM)	1.68 (≈ 3.9 µM)	0.6 (≈ 1.39 µM)	2.74 (≈ 6.36 µM)
CC1=C(CCC(C)C)OC[C@]23CC[C@H]4[C@@H](CC=C5C[C@@H](O)CC[C@@]54C)[C@@H]2CC[C@H]13	inactive	6.91 (≈ 17.3 µM)		3.52 (≈ 8.83 µM)	7.95 (≈ 19.9 µM)		8.92 (≈ 22.4 µM)
